Assay results taken from patent US4621077A, “Pharmacologically active biphosphonates, process for the preparation thereof and pharmaceutical compositions therefrom” (Istituto Gentili S.p.A., priority 1982, dated 1986).
“And” between values parts separate entries of the source, which are not always exact repeats. Equal entries are not always repeated. Where two headings read alike, the source gives them in different places.

Tests used:
skull cells = test: cells; type: cell-based, Wistar rats; conditions: Rattus norvegicus, read-out: Effect on the cellular number ± S.E.M.
Procedure: (§1) Cellular culture: the cells are cultured according to the method described by Fast et al, (Biochem. J. 172, 97-107 (1978)). By way of summary, the skulls removed from Wistar rats, one day old, are digested with collagenase. The cells set free are placed on a plate with concentration of 200,000 cells per cc of medium in disks "clusters" suitable for culture, the plates having 24 wells of 1.6 cm in diameter containing 0.5 cc of medium. The cells are cultivated in the essential minimum medium containing 10% of foetal calf serum in an atmosphere of 5% CO2 at 37° up to the eighth day. The bisphosphonates are added on the first day up to the end of the experiment. The medium is changed on the first, fourth and seventh day.
The cells are counted with a Coulter counter after they have been set free from the disks by digestion with a mixture of collagenase and trypsin.

[1] = tested on: patients with tumoral osteolysis
[2] = tested on: inhibition of the bone reabsorption
[3] = tested on: patients with primary hyperparathyroidism
Procedure: The substance ABDP, aminobutanediphosphonate has been used for venous infusion, 0.5-25 mg/day dissolved in 500 cc of 5% glucose solution in the following conditions:
Eight individuals having different degrees of calcemia varying to the extent of 17-11 mg%, were treated.

[4] = tested on: patients with Paget's disease
Procedure: (§2) The substance ABDP, aminobutanediphosphonate has been used for venous infusion, 0.5-25 mg/day dissolved in 500 cc of 5% glucose solution in the following conditions: […]

[5] = tested on: patients with widespread neoplastic osteolysis; conditions: six patients, 4 mg/day
Procedure: as §2

[6] = tested on: skull cells (lactate production); test: cells; type: cell-based, Wistar rats; conditions: Rattus norvegicus, 16 h, read-out: Effect on the production of lactate ± S.E.M.
Procedure: as §1
On the seventh day, the medium is changed and the cells are incubated for 16 hours. The lactate produced during this period is measured in an extract in HClO4 of the medium using lactatodehydrogenase.

[7] = tested on: bone reabsorption (metaphyseal bone density); test: Metaphyseal bone density / inhibition of bone reabsorption in rats treated for 7 days; type: in vivo; conditions: for metaphysical density: 7 days, rats
injection sites / skin = test: Necrosis at the injection sites in rats (local skin toxicity)
Source text: The symbol "x" represents a conventional score, that is "x" meand slight necrosis, "xx" means severe necrosis, "xxx" means very severe necrosis.

[8] = tested on: patients with tumoral osteolysis; conditions: comparison stated for other bisphosphonates, no own test shown; cited from earlier work
Solubility in water = type: physicochemical
[9] = two patients, 50 mg, three days

## NCCCC(O)(P(=O)(O)O)P(=O)(O)O [AHBU BP, 4-amino-1-hydroxybutan-1,1-biphosphonic acid]
Skull cells
  activity at 2.5 µM: 100 ± 1.6%
  activity at 25 µM: 101 ± 1.5%
  activity at 250 µM: 74.2 ± 4.7%
[1]; human, in vivo
  fever after administration: not been followed by fever
[1]; [9]
  effect of treatment: surprisingly every effective
  period of remission of the symptoms: surprisingly long
[2]; clinical, overall conclusion
  times more active than Cl2 MDP (inhibition of the bone reabsorption): 100-300 times
[2]; detailed observations in comparison not available yet
  activity on the immunity system: the activity on the immunity system appears to be peculiar to ABDP
[3]; comparison in patients with primary hyperparathyroidism, Cl2 MDP data from Adami et al, 1983
  times more active than Cl2 MDP: 20-100 times
[3]; four patients, 4-8 mg/day, 3-4 days
  calcemia and hydroxyprolinuria: the decrease of calcemia has been transitory, with the values of calcemia and the hydroxyprolinuria having a tendency to return to the basal values a few days after the suspension of the drug
[3]; one case with border line calcemia, 4 mg/day for four days
  calcemia: has not caused any variation in the calcemia even if it is accompanied by a persistent reduction in the calcemia
[3]; seven patients with very elevated calcemia, venous infusion
  calcemia: a drastic reduction of calcemia was achieved up to normal values in five of the patients
[3]; simultaneous with decrease of calcemia
  hydroxyprolinuria: rapid and parallel decrease of hydroxyprolinuria
[3]; three cases, 25 mg/day for seven days
  calcemia: normalization of calcemia up to the day of surgical intervention
[4]; after 6-8 months
  hydroxyprolinuria and alkaline phosphatemia at follow-up: normal values of hydroxyprolinuria and alkaline phosphatemia
[4]; three patients, 4 mg or 0.5 mg per day
  alkaline phosphatemia: gradual decrease up to normal values after 3-4 months of therapeutic cycle
[5]
  days of treatment after which painful bone symptoms decreased: 5 to 8 days
[5]; two weeks
  calciuria: normalization of calciuria
[5]; in five days
  decrease of hydroxyprolinuria: 50-80%
[6]
  activity at 2.5 µM: 88 ± 1.5%
  activity at 25 µM: 79.6 ± 4.1%
  activity at 250 µM: 180 ± 18.6%
[7]; in vivo in rats
  times superior activity versus AHPrBP (inhibition of bone reabsorption): about 100 times

## NCCC(O)(P(=O)(O)O)P(=O)(O)O [AHPrBP, 3-amino-1-hydroxypropylidene-1,1-bisphosphonate]
Injection sites / skin; 0.01 mg P/kg, 1 day
  necrosis at the injection sites: .0.
Injection sites / skin; 0.01 mg P/kg, 2 day
  necrosis at the injection sites: .0.
Injection sites / skin; 0.01 mg P/kg, 3 day
  necrosis at the injection sites: .0.
Injection sites / skin; 0.01 mg P/kg, 4 day
  necrosis at the injection sites: .0.
Injection sites / skin; 0.01 mg P/kg, 5 day
  necrosis at the injection sites: .0.
Injection sites / skin; 0.01 mg P/kg, 6 day
  necrosis at the injection sites: .0.
Injection sites / skin; 0.01 mg P/kg, 7 day
  necrosis at the injection sites: .0.
Injection sites / skin; 0.1 mg P/kg, 1 day
  necrosis at the injection sites: .0.
Injection sites / skin; 0.1 mg P/kg, 2 day
  necrosis at the injection sites: .0.
Injection sites / skin; 0.1 mg P/kg, 3 day
  necrosis at the injection sites: .0.
Injection sites / skin; 0.1 mg P/kg, 4 day
  necrosis at the injection sites: .0.
Injection sites / skin; 0.1 mg P/kg, 5 day
  necrosis at the injection sites: .0.
Injection sites / skin; 1 mg P/kg, 1 day
  necrosis at the injection sites: xxx and .0.
Injection sites / skin; 1 mg P/kg, 2 day
  necrosis at the injection sites: xxx and .0.
Injection sites / skin; 1 mg P/kg, 3 day
  necrosis at the injection sites: .0.
Injection sites / skin; 10 mg P/kg, 1 day
  necrosis at the injection sites: xxx
Injection sites / skin; 10 mg P/kg, 2 day
  necrosis at the injection sites: xxx
Injection sites / skin; rat, in vivo
  local / topical skin toxicity, in words: The most toxic substance
[7]; 0.01 mg P/kg s.c., s.c. NaCl controls 29.72
  metaphysical density: 39.53 % volume of calcified tissue
[7]; 0.1 mg P/kg s.c., s.c. NaCl controls 29.72
  metaphysical density: 50.31 % volume of calcified tissue
[7]; 2.0 mg P/kg p.o., p.o. NaCl controls 28.45
  metaphysical density: 33.72 % volume of calcified tissue
[8]
  fever after administration: occurs very frequently

## O=P(O)(O)C(F)(F)P(=O)(O)O [Example 6, trisodium difluoromethanebiphosphonate]
Solubility in water
  solubility in water: soluble in water

## O=P(O)(O)C(F)(F)P(=O)(O)O [Example 8, lysine difluoromethanebiphosphonate]
Solubility in water
  solubility in water: very soluble in water
